According to patent US20060116390A1, “Hepatitis c virus inhibitors” (priority 2003, published 2006):
Where two headings read alike, the source gives them in different places.

System: HCV proteins in Rep5.1 cells (replicon cell line)
Test: Inhibitory activity of HCV: cell-based ELISA in replicon cell line Rep5.1 (decrease of HCV proteins)
Set-up: species or system hepatitis C virus
Details: Rep5.1 cells, 72 hours with drug
Procedure, shortened: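 HCV protein loss was quantified by ELISA on methanol/acetone-fixed cells 72 h after drug addition, probing with selected HCV-positive human plasma, and IC50 was defined as 50% reduction relative to untreated wells. The cells were Rep5.1 replicon cells cultured in DMEM-10 with 500 μg/ml G418, plated at 5000 per well and dosed with serial dilutions after 4 h attachment.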

[1] = Hepatitis C virus, 72 h, concentration at which 50% of HCV proteins was decreased, Table 2, read-out: IC50
[2] = Hepatitis C virus, 72 h, decrease of HCV proteins measured by HCV antibody, Table 1, read-out: Level (IC50 values classified)
[3] = concentration at which 50% of HCV proteins was decreased, Table 2, read-out: IC50

SMILES	IC50 [1] [nM]	IC50 [2] [nM]	IC50 [3] [nM]
COc1ccc(C2(COC(=O)C3=C(C)NC(=S)NC3CF)CC2)cc1 (stereo not drawn) [66′, 4-fluoromethyl-6-methyl-2-thioxo-1,2,3,4-tetrahydro-pyrimidine-5-carboxylic acid 1-(4-methoxy-phenyl)-cyclopropylmethyl ester]	8000	1000 to 10000	–
CCCCC(C)OC(=O)C1=C(C)NC(=S)NC1 (stereo not drawn) [Compound 39, 6-methyl-2-thioxo-1,2,3,4-tetrahydro-pyrimidine-5-carboxylic acid 1-methyl-pentyl ester]	500	< 1000	–
CSc1ccc(COC(=O)C2=C(C)NC(=S)NC2)s1 [Compound 217, 6-methyl-2-thioxo-1,2,3,4-tetrahydro-pyrimidine-5-carboxylic acid 5-methylsulfanyl-thiophen-2-ylmethyl ester]	7000	1000 to 10000	–
CC1=C(C(=O)OCCc2cc(F)cc(F)c2)C(CO)NC(=S)N1 (stereo not drawn) [57″, 4-hydroxymethyl-6-methyl-2-thioxo-1,2,3,4-tetrahydro-pyrimidine-5-carboxylic acid 2-(3,5-difluoro-phenyl)-ethyl ester]	6400	1000 to 10000	–
CCN(c1ccc(CCOC(=O)C2=C(C)NC(=S)NC2CO)cc1[N+](=O)[O-])C1CC1 (stereo not drawn) [94″, 4-Hydroxymethyl-6-methyl-2-thioxo-1,2,3,4-tetrahydro-pyrimidine-5-carboxylic acid 2-[4-(cyclopropyl-ethyl-amino)-3-nitro-phenyl]-ethyl ester]	800	< 1000	–
CC1=C(C(=O)OCCc2cccc([N+](=O)[O-])c2)C(COC(=O)c2ccc(C(=O)O)cc2)NC(=S)N1 (stereo not drawn) [90″, terephthalic acid mono-{6-methyl-5-[2-(3-nitro-phenyl)-ethoxycarbonyl]-2-thioxo-1,2,3,4-tetrahydro-pyrimidin-4-ylmethyl}ester]	6900	1000 to 10000	–
CC1=C(C(=O)OCc2cccc(SC(F)(F)F)c2)C(CF)NC(=S)N1 (stereo not drawn) [72′, 4-fluoromethyl-6-methyl-2-thioxo-1,2,3,4-tetrahydro-pyrimidine-5-carboxylic acid 3-trifluoromethylsulfanyl-benzyl ester]	< 400	< 1000	–
CC1=C(C(=O)OCc2ccsc2)C(CF)NC(=S)N1 (stereo not drawn) [Compound 253, 4-fluoromethyl-6-methyl-2-thioxo-1,2,3,4-tetrahydro-pyrimidine-5-carboxylic acid thiophen-3-ylmethyl ester]	13000	10000 to 20000	–
COC1=C(C(=O)OCc2ccccc2)CNC(=S)N1 [Compound 63, 6-methoxy-2-thioxo-1,2,3,4-tetrahydro-pyrimidine-5-carboxylic acid benzyl ester]	> 100000	> 20000	–
COc1cc(COC(=O)C2=C(C)NC(=S)NC2)ccc1OCc1ccccc1 [Compound 58, 6-methyl-2-thioxo-1,2,3,4-tetrahydro-pyrimidine-5-carboxylic acid 4-benzyloxy-3-methoxy-benzyl ester]	< 500	< 1000	–
CC1=C(C(=O)SCCc2ccccc2)C(CF)NC(=S)N1 (stereo not drawn) [88′, 4-fluoromethyl-6-methyl-2-thioxo-1,2,3,4-tetrahydro-pyrimidine-5-carbothioic acid S-phenethyl ester]	400	< 1000	–
CCOc1cc(COC(=O)C2=C(C)NC(=S)NC2)cc(OCC)c1 [Compound 150, 6-methyl-2-thioxo-1,2,3,4-tetrahydro-pyrimidine-5-carboxylic acid 3,5-diethoxy-benzyl ester]	1000	< 1000	–
CC1=C(C(=O)OCc2cc(Cl)ccc2[N+](=O)[O-])CNC(=S)N1 [Compound 143, 6-methyl-2-thioxo-1,2,3,4-tetrahydro-pyrimidine-5-carboxylic acid 5-chloro-2-nitro-benzyl ester]	400	< 1000	–
C#CCCOC(=O)C1=C(C)NC(=S)NC1 [Compound 129, 6-methyl-2-thioxo-1,2,3,4-tetrahydro-pyrimidine-5-carboxylic acid but-3-inyl ester]	–	–	> 100000
CCCOCC#CCOC(=O)C1=C(C)NC(=S)NC1 [Compound 237, 6-methyl-2-thioxo-1,2,3,4-tetrahydro-pyrimidine-5-carboxylic acid 4-propoxy-but-2-inyl ester]	–	–	1700
CC1=C(C(=O)OCCS(=O)(=O)c2ccc(C)cc2)CNC(=S)N1 [Compound 201, 6-methyl-2-thioxo-1,2,3,4-tetrahydro-pyrimidine-5-carboxylic acid 2-(toluene-4-sulfonyl)-ethyl ester]	13000	10000 to 20000	–
C=C(Cl)COC(=O)C1=C(C)NC(=S)NC1 [Compound 98, 6-methyl-2-thioxo-1,2,3,4-tetrahydro-pyrimidine-5-carboxylic acid 2-chloro-allyl ester]	7000	1000 to 10000	–

SMILES	IC50 [1] [nM]	IC50 [2] [nM]	IC50 [3] [nM]
COc1ccc(CCCOC(=O)C2=C(C)NC(=S)NC2)cc1OC [Compound 36, 6-methyl-2-thioxo-1,2,3,4-tetrahydro-pyrimidine-5-carboxylic acid 3-(3,4-dimethoxy-phenyl)-propyl ester]	84000	> 20000	–
CC1=C(C(=O)OCc2ccc(Br)s2)CNC(=S)N1 [Compound 203, 6-methyl-2-thioxo-1,2,3,4-tetrahydro-pyrimidine-5-carboxylic acid 5-bromo-thiophen-2-ylmethyl ester]	< 400	< 1000	–
CC1=C(C(=O)OCCc2ccsc2)C(COCc2ccccc2)NC(=S)N1 (stereo not drawn) [Compound 272, 4-benzyloxymethyl-6-methyl-2-thioxo-1,2,3,4-tetrahydro-pyrimidine-5-carboxylic acid 2-thiophen-3-yl-ethyl ester]	34000	> 20000	–
CC1=C(C(=O)OCCc2ccsc2)C(C(F)F)NC(=S)N1 (stereo not drawn) [80′, 4-difluoromethyl-6-methyl-2-thioxo-1,2,3,4-tetrahydro-pyrimidine-5-carboxylic acid 2-thiophen-3-yl-ethyl ester]	11000	10000 to 20000	–
C=C(C)[C@@H]1CC=C(COC(=O)C2=C(C)NC(=S)NC2)CC1 [Compound 96, 6-methyl-2-thioxo-1,2,3,4-tetrahydro-pyrimidine-5-carboxylic acid (s)-(−)-4-isopropenyl-cyclohex-1-enylmethyl ester]	< 400	< 1000	–
CCCCCC(CC)OC(=O)C1=C(C)NC(=S)NC1 (stereo not drawn) [Compound 47, 6-methyl-2-thioxo-1,2,3,4-tetrahydro-pyrimidine-5-carboxylic acid 1-ethyl-hexyl ester]	< 500	< 1000	–
CCc1ccc(CCOC(=O)C2=C(C)NC(=S)NC2)o1 [22′, 6-methyl-2-thioxo-1,2,3,4-tetrahydro-pyrimidine-5-carboxylic acid 2-(5-ethyl-furan-2-yl)-ethyl ester]	< 400	< 1000	–
CCCOc1ccc(COC(=O)C2=C(C)NC(=S)NC2)cc1 [Compound 78, 6-methyl-2-thioxo-1,2,3,4-tetrahydro-pyrimidine-5-carboxylic acid 4-propoxy-benzyl ester]	1000	< 1000	–
CC(=O)OCC1NC(=S)NC(C)=C1C(=O)OCCCc1cccs1 (stereo not drawn) [23″, 4-acetoxymethyl-6-methyl-2-thioxo-1,2,3,4-tetrahydro-pyrimidine-5-carboxylic acid 3-thiophen-2-yl-propyl ester]	9000	1000 to 10000	–
CC1=C(C(=O)OCCc2cccc(Cl)c2)C(COC(=O)OCc2oc(=O)oc2C)NC(=S)N1 (stereo not drawn) [78″, 6-methyl-4-(5-methyl-2-oxo-[1,3]dioxol-4-ylmethoxycarbonyloxymethyl)-2-thioxo-1,2,3,4-tetrahydro-pyrimidine-5-carboxylic acid 2-(3-chloro-phenyl)-ethyl ester]	800	< 1000	–
CCOc1ccc(COC(=O)C2=C(C)NC(=S)NC2)cc1 [Compound 71, 6-methyl-2-thioxo-1,2,3,4-tetrahydro-pyrimidine-5-carboxylic acid 4-ethoxy-benzyl ester]	2500	1000 to 10000	–
CSc1ccc(CCCOC(=O)C2=C(C)NC(=S)NC2)cc1 [Compound 105, 6-methyl-2-thioxo-1,2,3,4-tetrahydro-pyrimidine-5-carboxylic acid 3-(4-methylsulfanyl-phenyl)-propyl ester]	< 400	< 1000	–
CC1=C(C(=O)OC2CCc3c2csc3Cl)CNC(=S)N1 (stereo not drawn) [21′, 6-methyl-2-thioxo-1,2,3,4-tetrahydro-pyrimidine-5-carboxylic acid 1-chloro-5,6-dihydro-4H-cyclopenta[c]thiophen-4-yl ester]	400	< 1000	–
CC1=C(C(=O)OCCc2cccc(C)c2)C(CO)NC(=S)N1 (stereo not drawn) [64″, 4-hydroxymethyl-6-methyl-2-thioxo-1,2,3,4-tetrahydro-pyrimidine-5-carboxylic acid 2-m-tolyl-ethyl ester]	5500	1000 to 10000	–
CCOc1ccccc1CCOC(=O)C1=C(C)NC(=S)NC1CO (stereo not drawn) [11″, 4-hydroxymethyl-6-methyl-2-thioxo-1,2,3,4-tetrahydro-pyrimidine-5-carboxylic acid 2-(2-ethoxy-phenyl)-ethyl ester]	6000	1000 to 10000	–
COc1ccc(COc2ccc(COC(=O)C3=C(C)NC(=S)NC3)cc2)cc1 [Compound 227, 6-methyl-2-thioxo-1,2,3,4-tetrahydro-pyrimidine-5-carboxylic acid 4-(4-methoxy-benzyloxy)-benzyl ester]	< 400	< 1000	–
CC1=C(C(=O)OCCc2scnc2C)CNC(=S)N1 [Compound 24, 6-methyl-2-thioxo-1,2,3,4-tetrahydro-pyrimidine-5-carboxylic acid 2-(4-methyl-thiazol-5-yl)-ethyl ester]	70000	> 20000	–
